The supplement of paper PMC11061612

Experiments:
Assay in all cases: Bliss excess, mean over the matrix (fraction); higher = more synergy
[1] = system: ATN-1 (T-Lymphoblastic Leukemia)
Procedure, shortened: (§1)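 Cell lines in DMEM/F12 or RPMI with 10% FBS were plated in 1536-well plates, held 24 hours at 37°C, 5% CO2, then given two-drug dose matrices for 72 hours (DMSO typically 0.2%). Viability was read by CellTiter-Glo 2.0 luminescence and scaled as inhibition from 0 (vehicle wells) to 1 (blank wells). Combination Emax is the second-highest inhibition in the matrix; Bliss excess is observed combination effect minus expected EA + EB − EA·EB, EA and EB being single-agent effects.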

[2] = system: BC-1 (B-Cell Non-Hodgkin's Lymphoma)
Procedure, shortened: as §1

[3] = system: BT-474 (Breast Carcinoma)
Procedure, shortened: as §1

DK-MG (Glioblastoma) = system: DK-MG (Glioblastoma)
Procedure, shortened: as §1

GCIY (Gastric Carcinoma) = system: GCIY (Gastric Carcinoma)
Procedure, shortened: as §1

[4] = system: HT-1197 (Bladder Carcinoma)
Procedure, shortened: as §1

[5] = system: HT-3 (Cervical Carcinoma)
Procedure, shortened: as §1

[6] = system: IGROV-1 (Ovarian Carcinoma)
Procedure, shortened: as §1

[7] = system: KNS-62 (Squamous Cell Lung Carcinoma)
Procedure, shortened: as §1

[8] = system: MDA-MB-175-VII (Breast Carcinoma)
Procedure, shortened: as §1

MG-63 (Osteosarcoma) = system: MG-63 (Osteosarcoma)
Procedure, shortened: as §1

[9] = system: NCI-H1975 (Lung Adenocarcinoma)
Procedure, shortened: as §1

[10] = system: NCI-H2170 (Squamous Cell Lung Carcinoma)
Procedure, shortened: as §1

[11] = system: NTERA-2-cl-D1 (Other Solid Carcinomas)
Procedure, shortened: as §1

[12] = system: OCI-M1 (Acute Myeloid Leukemia)
Procedure, shortened: as §1

[13] = system: SBC-5 (Small Cell Lung Carcinoma)
Procedure, shortened: as §1

[14] = system: SCC90 (Head and Neck Carcinoma)
Procedure, shortened: as §1

[15] = system: SUP-HD1 (Hodgkin's Lymphoma)
Procedure, shortened: as §1

[16] = system: SW1463 (Colorectal Carcinoma)
Procedure, shortened: as §1

[17] = system: TK (B-Cell Non-Hodgkin's Lymphoma)
Procedure, shortened: as §1

SMILES	Bliss excess [1]	Bliss excess [2]	Bliss excess [3]	Bliss excess (DK-MG (Glioblastoma))	Bliss excess (GCIY (Gastric Carcinoma))	Bliss excess [4]	Bliss excess [5]	Bliss excess [6]	Bliss excess [7]	Bliss excess [8]	Bliss excess (MG-63 (Osteosarcoma))	Bliss excess [9]	Bliss excess [10]	Bliss excess [11]	Bliss excess [12]	Bliss excess [13]	Bliss excess [14]	Bliss excess [15]	Bliss excess [16]	Bliss excess [17]
COc1cccc(OCCCN)c1-c1cc(Nc2cnc(C#N)cn2)n[nH]1 [Prexasertib] + C[C@@H]1COCCN1C2=NC(=NC(=C2)C3(CC3)[S@](=N)(=O)C)C4=C5C=CNC5=NC=C4 [AZD6738] (first compound max 1 µM, 7x7, partner max 10 µM)	-0.0207	-0.0022	-0.0233	0.0073	0.0063	0.0065	0.0202	-0.0567	0.0035	-0.0016	0.0234	0.0029	-0.0461	0.0172	-0.0504	-0.0272	-0.0457	-0.0809	0.0004	-0.083
COc1cccc(OCCCN)c1-c1cc(Nc2cnc(C#N)cn2)n[nH]1 [Prexasertib] + Cc1cc2ncnn2cc1Nc1ncc2c(n1)n(C1CCOCC1)c(=O)n2C [AZD7648] (first compound max 1 µM, 7x7, partner max 10 µM)	0.0136	-0.0239	-0.0188	0.0253	-0.0648	-0.0206	-0.0098	-0.0264	-0.0225	-0.0328	-0.0128	0.041	-0.0074	-0.0688	-0.0483	-0.0116	-0.036	-0.0443	-0.0161	-0.0477
COc1cccc(OCCCN)c1-c1cc(Nc2cnc(C#N)cn2)n[nH]1 [Prexasertib] + O=C(c1cc(Cc2n[nH]c(=O)c3ccccc23)ccc1F)N1CCN(C(=O)C2CC2)CC1 [Olaparib] (first compound max 1 µM, 7x7, partner max 10 µM)	-0.0078	-0.0108	-0.037	0.0193	-0.0476	-0.044	0.0276	-0.111	-0.0637	-0.0407	-0.0745	0.0284	-0.106	0.0401	-0.0322	-0.0376	-0.095	-0.091	-0.0549	-0.0837
CCc1c2c(nc3ccc(O)cc13)-c1cc3c(c(=O)n1C2)COC(=O)[C@]3(O)CC [SN-38] + CN(C)CCCOc1ccc(-c2ccc3ncc4c(c3c2)n(C2CCOCC2)c(=O)n4C)cn1 [AZD0156] (first compound max 0.3 µM, 7x7, partner max 1 µM)	0.0407	0.0158	-0.047	-0.0007	0.0057	-0.0537	0.0499	-0.0101	-0.0557	-0.0043	-0.0166	0.006	0.0296	-0.0591	0.0128	0.0245	0.0059	-0.0579	0.0296	0.0322
Cn1cnc2c(F)c(Nc3ccc(Br)cc3Cl)c(C(=O)NOCCO)cc21 [Selumetinib] + C=CCn1c(=O)c2cnc(Nc3ccc(N4CCN(C)CC4)cc3)nc2n1-c1cccc(C(C)(C)O)n1 [AZD1775] (first compound max 10 µM, partner max 1 µM)	-0.0253	0.0569	-0.0466	-0.0548	0.0057	0.0032	-0.0009	-0.0444	-0.0251	-0.0005	-0.0327	-0.0318	-0.0838	0.0314	0	-0.022	-0.0036	-0.0188	-0.0367	-0.0478
Cn1cnc2c(F)c(Nc3ccc(Br)cc3Cl)c(C(=O)NOCCO)cc21 [Selumetinib] + CC(C)n1c(=O)n(C)c2cnc3cc(F)c(-c4ccc(OCCCN5CCCCC5)nc4)cc3c21 [AZD1390] (first compound max 10 µM, 7x7, partner max 0.3 µM)	-0.0318	-0.0023	-0.0469	0.0063	-0.0233	-0.0565	-0.0392	-0.0204	-0.0513	-0.0235	-0.0037	-0.0473	-0.0384	0.0052	0.0164	-0.0404	0.0124	-0.043	-0.0078	-0.0134
Cn1cnc2c(F)c(Nc3ccc(Br)cc3Cl)c(C(=O)NOCCO)cc21 [Selumetinib] + CCN(CCO)CCCOc1ccc2c(Nc3cc(CC(=O)Nc4cccc(F)c4)[nH]n3)ncnc2c1 [AZD2811] (first compound max 10 µM, 7x7, partner max 1 µM)	-0.0981	0.0349	-0.0419	-0.0736	-0.0127	-0.0073	-0.0288	-0.021	-0.0104	0.0109	-0.0494	0.0012	-0.0566	0.0056	0.0927	-0.0253	0.0116	0.0251	0.0162	0.0002
Cn1cnc2c(F)c(Nc3ccc(Br)cc3Cl)c(C(=O)NOCCO)cc21 [Selumetinib] + C[C@@H]1COCCN1C2=NC(=NC(=C2)C3(CC3)[S@](=N)(=O)C)C4=C5C=CNC5=NC=C4 [AZD6738] (first compound max 10 µM, 7x7, partner max 10 µM)	-0.024	-0.0612	-0.0485	0.059	-0.0003	0.0196	0.063	0.0211	-0.0278	0.029	0.0342	0.0316	-0.0464	-0.009	0.0217	0.0096	0.0126	-0.0549	-0.0121	0.0005
CC(=O)Nc1cccc(-n2c(=O)n(C3CC3)c(=O)c3c(Nc4ccc(I)cc4F)n(C)c(=O)c(C)c32)c1 [Trametinib] + Cc1nc(-c2cn3c(n2)-c2ccc(-c4cnn(C(C)(C)C(N)=O)c4)cc2OCC3)n(C(C)C)n1 [Taselisib] (first compound max 1 µM, 7x7, partner max 10 µM)	-0.0503	0.149	0.0002	0.102	0.0252	0.105	0.12	-0.0339	0.056	0.232	0.0237	0.177	0.029	0.022	0.0652	0.192	0.0348	0.0392	0.04	-0.0052
CC1(C)CCC(CN2CCN(c3ccc(C(=O)NS(=O)(=O)c4ccc(NCC5CCOCC5)c([N+](=O)[O-])c4)c(Oc4cnc5[nH]ccc5c4)c3)CC2)=C(c2ccc(Cl)cc2)C1 [Venetoclax] + C1CN(CCC1(C(=O)N[C@@H](CCO)C2=CC=C(C=C2)Cl)N)C3=NC=NC4=C3C=CN4 [Capivasertib] (first compound max 1 µM, 7x7, partner max 3 µM)	0.0132	-0.011	-0.0376	-0.0193	-0.0778	-0.0444	-0.0231	-0.0182	-0.0474	-0.0175	-0.0862	-0.0362	-0.0434	-0.0574	-0.0441	-0.041	0.0282	-0.0636	-0.0424	-0.0111
CC1(C)CCC(CN2CCN(c3ccc(C(=O)NS(=O)(=O)c4ccc(NCC5CCOCC5)c([N+](=O)[O-])c4)c(Oc4cnc5[nH]ccc5c4)c3)CC2)=C(c2ccc(Cl)cc2)C1 [Venetoclax] + C=CCn1c(=O)c2cnc(Nc3ccc(N4CCN(C)CC4)cc3)nc2n1-c1cccc(C(C)(C)O)n1 [AZD1775] (first compound max 1 µM, partner max 1 µM)	0.0707	0.0683	-0.0668	-0.0003	0.111	-0.001	-0.0049	-0.0952	-0.0106	-0.0111	-0.0048	-0.0143	-0.0548	-0.0202	-0.0505	-0.0709	-0.0466	-0.0256	-0.0942	0.0168
CC1(C)CCC(CN2CCN(c3ccc(C(=O)NS(=O)(=O)c4ccc(NCC5CCOCC5)c([N+](=O)[O-])c4)c(Oc4cnc5[nH]ccc5c4)c3)CC2)=C(c2ccc(Cl)cc2)C1 [Venetoclax] + CCN(CCO)CCCOc1ccc2c(Nc3cc(CC(=O)Nc4cccc(F)c4)[nH]n3)ncnc2c1 [AZD2811] (first compound max 1 µM, 7x7, partner max 1 µM)	0.0113	0.111	-0.0035	-0.0784	-0.0468	-0.0204	-0.0129	-0.0091	0.0131	-0.0228	-0.0699	-0.0555	-0.0185	0.0826	0.0061	0.0161	0.169	-0.0195	-0.0389	0.0051
